In US20260297081A1, “COMPOUNDS AND METHODS OF TREATING CANCERS” (Cullgen Inc., priority 2023, published 2026) one finds activity data, which are given here for 13 molecules.

For the test, the target named is CDK4 (Homo sapiens, UniProt P11802+Q16531). As to the kind of experiment: HiBiT detection of HiBiT-tagged CDK4 protein level in MCF7 cells, 16 hours (Table 8). It is filed as cell-based. Also noted: expressed in transfected cells; host or cells: MCF7. The following applies: MCF7 cells stably expressing HiBiT tagged target proteins; for activity at 0.01 µM: 10 nM, read-out: % CDK4 Relative Level (10 nM); for activity at 0.1 µM: 100 nM, read-out: % CDK4 Relative Level (100 nM). The method, then:
HiBiT detection system quantitatively measures total amounts of HiBiT-tagged proteins using a luminescent based method. MCF7 cells stably expressing HiBiT tagged target proteins were treated with heterobifunctional compounds at indicated concentrations for 16 hours, then lysed with Nano-Glo HiBiT Lytic detection reagents.
In general terms: The HiBiT peptide binds its large partner to form an active luciferase.

Chain of CDK4 (P11802 whole entry): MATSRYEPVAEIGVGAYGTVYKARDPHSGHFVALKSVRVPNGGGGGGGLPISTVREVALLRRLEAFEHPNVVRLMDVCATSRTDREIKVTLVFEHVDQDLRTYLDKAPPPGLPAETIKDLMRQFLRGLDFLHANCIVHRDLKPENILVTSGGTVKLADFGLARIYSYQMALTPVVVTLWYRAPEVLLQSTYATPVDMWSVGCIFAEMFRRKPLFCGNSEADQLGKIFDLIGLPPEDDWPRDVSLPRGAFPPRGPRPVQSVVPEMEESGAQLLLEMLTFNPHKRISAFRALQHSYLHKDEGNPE
Chain of CDK4 (P24385 whole entry partner): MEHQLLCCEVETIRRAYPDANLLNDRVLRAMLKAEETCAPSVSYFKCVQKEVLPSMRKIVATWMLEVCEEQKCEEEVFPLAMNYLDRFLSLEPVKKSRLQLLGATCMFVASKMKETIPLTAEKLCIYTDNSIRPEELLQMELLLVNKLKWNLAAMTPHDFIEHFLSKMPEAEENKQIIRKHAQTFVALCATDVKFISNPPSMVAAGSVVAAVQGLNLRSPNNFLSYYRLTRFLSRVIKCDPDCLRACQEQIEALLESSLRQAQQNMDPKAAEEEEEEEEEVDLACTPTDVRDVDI
Chain of CDK4 (Q16531 2-1140 limits assumed): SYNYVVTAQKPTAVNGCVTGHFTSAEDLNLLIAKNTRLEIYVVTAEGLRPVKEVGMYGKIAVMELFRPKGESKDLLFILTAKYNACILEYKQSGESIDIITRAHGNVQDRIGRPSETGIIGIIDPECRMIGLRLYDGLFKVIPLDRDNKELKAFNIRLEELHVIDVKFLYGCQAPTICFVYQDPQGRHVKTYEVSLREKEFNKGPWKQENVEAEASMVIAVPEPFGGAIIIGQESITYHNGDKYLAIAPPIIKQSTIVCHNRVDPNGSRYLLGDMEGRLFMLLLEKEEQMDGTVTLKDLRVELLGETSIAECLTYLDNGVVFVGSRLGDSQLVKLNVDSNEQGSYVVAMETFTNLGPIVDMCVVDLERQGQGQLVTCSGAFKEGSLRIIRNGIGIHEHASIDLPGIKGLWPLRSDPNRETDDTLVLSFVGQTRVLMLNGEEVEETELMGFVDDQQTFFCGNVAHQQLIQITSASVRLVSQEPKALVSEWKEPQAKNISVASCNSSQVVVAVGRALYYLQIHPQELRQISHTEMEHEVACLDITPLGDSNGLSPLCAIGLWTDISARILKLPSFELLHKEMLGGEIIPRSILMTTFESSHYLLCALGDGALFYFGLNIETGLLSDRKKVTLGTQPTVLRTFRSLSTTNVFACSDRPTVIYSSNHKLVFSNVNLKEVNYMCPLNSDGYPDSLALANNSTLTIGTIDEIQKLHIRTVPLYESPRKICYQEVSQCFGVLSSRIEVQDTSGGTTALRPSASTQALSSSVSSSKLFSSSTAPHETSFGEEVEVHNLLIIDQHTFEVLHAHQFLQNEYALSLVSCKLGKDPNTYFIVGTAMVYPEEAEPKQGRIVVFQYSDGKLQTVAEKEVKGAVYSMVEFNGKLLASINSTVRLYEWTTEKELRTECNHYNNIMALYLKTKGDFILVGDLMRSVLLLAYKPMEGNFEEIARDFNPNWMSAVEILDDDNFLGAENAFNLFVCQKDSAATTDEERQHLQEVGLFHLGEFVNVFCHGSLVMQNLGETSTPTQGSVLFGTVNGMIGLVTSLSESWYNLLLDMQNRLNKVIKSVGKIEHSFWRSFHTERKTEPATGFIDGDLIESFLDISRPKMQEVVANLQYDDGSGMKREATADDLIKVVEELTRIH

Consider `CNc1ccc(C(=O)Nc2ccc(N(C)C)nn2)c(NCCC(=O)NC2CCC(Nc3ncc4ccc(=O)n(C5CCCC5)c4n3)CC2)n1` (centres unmarked) [CPD-666, 2-((3-((4-((8-cyclopentyl-7-oxo-7,8-dihydropyrido[2,3-d]pyrimidin-2-yl)amino)cyclohexyl)amino)-3-oxopropyl)amino)-N-(6-(dimethylamino)pyridazin-3-yl)-6-(methylamino)nicotinamide], for which the activity at 0.01 µM was above 85% and the activity at 0.1 µM is above 85%.

Consider `CNc1ccc(C(=O)Nc2ccc(N(C)C)nn2)c(NCCCCCCCC(=O)N2CCN(Cc3ccc(Nc4ncc(F)c(-c5cc(F)c6nc(C)n(C(C)C)c6c5)n4)nc3)CC2)n1` [CPD-605, N-(6-(dimethylamino)pyridazin-3-yl)-2-((8-(4-((6-((5-fluoro-4-(4-fluoro-1-isopropyl-2-methyl-1H-benzo[d]imidazol-6-yl)pyrimidin-2-yl)amino)pyridin-3-yl)methyl)piperazin-1-yl)-8-oxooctyl)amino)-6-(methylamino)nicotinamide], for which the activity at 0.01 µM was above 85% and the activity at 0.1 µM was above 85%.

Regarding `CNc1ccc(C(=O)Nc2ccc(N(C)C)nn2)c(NCCCC(=O)NC2CCC3(CC2)CC(Nc2ncc4ccc(=O)n(C5CCCC5)c4n2)C3)n1` (centres unmarked) [CPD-674, 2-((4-((2-((8-cyclopentyl-7-oxo-7,8-dihydropyrido[2,3-d]pyrimidin-2-yl)amino)spiro[3.5]nonan-7-yl)amino)-4-oxobutyl)amino)-N-(6-(dimethylamino)pyridazin-3-yl)-6-(methylamino)nicotinamide], the activity at 0.01 µM was above 85% and the activity at 0.1 µM was above 85%.

With `CNc1ccc(C(=O)Nc2ccc(N(C)C)nn2)c(NCCOCCOCCC(=O)N2CCN(c3ccc(Nc4ncc5cc(C(=O)N(C)C)n(C6CCCC6)c5n4)nc3)CC2)n1` [CPD-623, 7-cyclopentyl-2-((5-(4-(3-(2-(2-((3-((6-(dimethylamino)pyridazin-3-yl)carbamoyl)-6-(methylamino)pyridin-2-yl)amino)ethoxy)ethoxy)propanoyl)piperazin-1-yl)pyridin-2-yl)amino)-N,N-dimethyl-7H-pyrrolo[2,3-d]pyrimidine-6-carboxamide], the activity at 0.01 µM is above 85% and the activity at 0.1 µM was above 85%.

`CNc1ccc(C(=O)Nc2ccc(N(C)C)nn2)c(NCCCCCCNC(=O)CN2CCN(c3ccc(Nc4ncc(F)c(-c5cc(F)c6nc(C)n(C(C)C)c6c5)n4)nc3)CC2)n1` [CPD-662, N-(6-(dimethylamino)pyridazin-3-yl)-2-((6-(2-(4-(6-((5-fluoro-4-(4-fluoro-1-isopropyl-2-methyl-1H-benzo[d]imidazol-6-yl)pyrimidin-2-yl)amino)pyridin-3-yl)piperazin-1-yl)acetamido)hexyl)amino)-6-(methylamino)nicotinamide]: the activity at 0.01 µM was above 85% and the activity at 0.1 µM is above 85%.

As to `CNc1ccc(C(=O)Nc2ccc(N(C)C)nn2)c(NCCCCCC(=O)NC2CCC3(CC2)CC(Nc2ncc4ccc(=O)n(C5CCCC5)c4n2)C3)n1` (centres unmarked) [CPD-676, 2-((6-((2-((8-cyclopentyl-7-oxo-7,8-dihydropyrido[2,3-d]pyrimidin-2-yl)amino)spiro[3.5]nonan-7-yl)amino)-6-oxohexyl)amino)-N-(6-(dimethylamino)pyridazin-3-yl)-6-(methylamino)nicotinamide], the activity at 0.01 µM is above 85% and the activity at 0.1 µM was above 85%.

Consider `CNc1ccc(C(=O)Nc2ccc(N(C)C)nn2)c(NCCCCC(=O)N2CCN(c3ccc(Nc4ncc(F)c(-c5cc(F)c6nc(C)n(C(C)C)c6c5)n4)nc3)CC2)n1` [CPD-650, N-(6-(dimethylamino)pyridazin-3-yl)-2-((5-(4-(6-((5-fluoro-4-(4-fluoro-1-isopropyl-2-methyl-1H-benzo[d]imidazol-6-yl)pyrimidin-2-yl)amino)pyridin-3-yl)piperazin-1-yl)-5-oxopentyl)amino)-6-(methylamino)nicotinamide], for which the activity at 0.01 µM is above 85% and the activity at 0.1 µM is above 85%.

Consider `CNc1ccc(C(=O)Nc2ccc(N(C)C)nn2)c(NCCOCCNC(=O)CN2CCN(c3ccc(Nc4ncc5cc(C(=O)N(C)C)n(C6CCCC6)c5n4)nc3)CC2)n1` [CPD-631, 7-cyclopentyl-2-((5-(4-(2-((2-(2-((3-((6-(dimethylamino)pyridazin-3-yl)carbamoyl)-6-(methylamino)pyridin-2-yl)amino)ethoxy)ethyl)amino)-2-oxoethyl)piperazin-1-yl)pyridin-2-yl)amino)-N,N-dimethyl-7H-pyrrolo[2,3-d]pyrimidine-6-carboxamide], for which the activity at 0.01 µM was above 85% and the activity at 0.1 µM is above 85%.

In the case of `CNc1ccc(C(=O)Nc2ccc(N(C)C)nn2)c(NCCCCNC(=O)CN2CCN(c3ccc(Nc4ncc(F)c(-c5cc(F)c6nc(C)n(C(C)C)c6c5)n4)nc3)CC2)n1` [CPD-660, N-(6-(dimethylamino)pyridazin-3-yl)-2-((4-(2-(4-(6-((5-fluoro-4-(4-fluoro-1-isopropyl-2-methyl-1H-benzo[d]imidazol-6-yl)pyrimidin-2-yl)amino)pyridin-3-yl)piperazin-1-yl)acetamido)butyl)amino)-6-(methylamino)nicotinamide], the activity at 0.01 µM is above 85% and the activity at 0.1 µM was above 85%.

In the case of `CNc1ccc(C(=O)Nc2ccc(N(C)C)nn2)c(NCCCCCCNC(=O)CN2CCN(Cc3ccc(Nc4ncc(F)c(-c5cc(F)c6nc(C)n(C(C)C)c6c5)n4)nc3)CC2)n1` [CPD-612, N-(6-(dimethylamino)pyridazin-3-yl)-2-((6-(2-(4-((6-((5-fluoro-4-(4-fluoro-1-isopropyl-2-methyl-1H-benzo[d]imidazol-6-yl)pyrimidin-2-yl)amino)pyridin-3-yl)methyl)piperazin-1-yl)acetamido)hexyl)amino)-6-(methylamino)nicotinamide], the activity at 0.01 µM was above 85% and the activity at 0.1 µM is above 85%.

As for `CNc1ccc(C(=O)Nc2ccc(N(C)C)nn2)c(NCCNC(=O)CN2CCN(c3ccc(Nc4ncc(F)c(-c5cc(F)c6nc(C)n(C(C)C)c6c5)n4)nc3)CC2)n1` [CPD-658, N-(6-(dimethylamino)pyridazin-3-yl)-2-((2-(2-(4-(6-((5-fluoro-4-(4-fluoro-1-isopropyl-2-methyl-1H-benzo[d]imidazol-6-yl)pyrimidin-2-yl)amino)pyridin-3-yl)piperazin-1-yl)acetamido)ethyl)amino)-6-(methylamino)nicotinamide], the activity at 0.01 µM was above 85% and the activity at 0.1 µM was above 85%.

For the molecule `CNc1ccc(C(=O)Nc2ccc(N(C)C)nn2)c(NCCOCCC(=O)NC2CCC3(CC2)CC(Nc2ncc4ccc(=O)n(C5CCCC5)c4n2)C3)n1` (centres unmarked) [CPD-679, 2-((2-(3-((2-((8-cyclopentyl-7-oxo-7,8-dihydropyrido[2,3-d]pyrimidin-2-yl)amino)spiro[3.5]nonan-7-yl)amino)-3-oxopropoxy)ethyl)amino)-N-(6-(dimethylamino)pyridazin-3-yl)-6-(methylamino)nicotinamide], the activity at 0.01 µM is above 85% and the activity at 0.1 µM was above 85%.

For the molecule `CNc1ccc(C(=O)Nc2ccc(N(C)C)nn2)c(NCCCCC(=O)NC2CCC3(CC2)CC(Nc2ncc4ccc(=O)n(C5CCCC5)c4n2)C3)n1` (centres unmarked) [CPD-675, 2-((5-((2-((8-cyclopentyl-7-oxo-7,8-dihydropyrido[2,3-d]pyrimidin-2-yl)amino)spiro[3.5]nonan-7-yl)amino)-5-oxopentyl)amino)-N-(6-(dimethylamino)pyridazin-3-yl)-6-(methylamino)nicotinamide], the activity at 0.01 µM was above 85% and the activity at 0.1 µM is above 85%.
